Test results taken from patent US20220409617A1, “Drug Formulations and Methods of Treatment for Metabolic Disorders” (The Regents of the University of California, priority 2019, published 2022).

Test system: DRP1
Assay: DRP1 recruitment to mitochondria (DRP1/citrate synthase co-localization) and DRP1 western blot
Assay type: cell-based, mouse
Settings: MEFs
Description: Mature adipocytes were serum starved for 16 h then treated with vehicle, ceramide (50 or 100 μM), or sphingolipid-like compound 893 (5 or 10 μM) in serum-free media supplemented with 0.2% fatty-acid free BSA for 3 h after which 100 nM insulin was added for 15 min. To determine total DRP1 protein levels, 100,000 MEFs were seeded into a 6-well plate for 16 h, pre-treated for 3 h with vehicle or sphingolipid-like compound 893 (5 μM) followed by a 3 h incubation in 1% BSA+ethanol or BSA-palmitate (250 μM). Cells were washed once with cold PBS, then lysed in cold RIPA buffer (140 mM NaCl, 10 mM Tris pH 8.0, 1% Triton X-100, 0.1% SDS, 1% sodium deoxycholate) with cOmplete™ protease inhibitor (Cat no. 11697498001, Millipore Sigma, St. Louis, Mo.) and phosSTOP™ phosphatase inhibitor (Cat no. 4906837001, Millipore Sigma). Samples were incubated on ice for 10 min and insoluble material removed by centrifugation (9000×g for 10 min at 4° C.). Protein content was quantified in the supernatant using the Pierce™ BCA Protein Assay Kit (Thermo-Fisher Scientific, Waltham, Mass.). Equal amounts of protein were prepared in NuPAGE® LDS Sample Buffer (NP0007, Invitrogen) containing 50 mM DTT, and heated at 70° C. for 10 min. Proteins were resolved on a NuPAGE® 4-12% Bis-Tris protein gel (NP0336, Invitrogen, Carlsbad, Calif.) and subsequently transferred to a nitrocellulose membrane. Membranes were blocked in 5% BSA in TBST for 1 h, then probed with primary antibodies overnight at 4° C. […] Band intensity was quantified using Image Studio Lite V5.2 software (Li-COR).
MEFs were washed twice with PBS and fixed with 4% paraformaldehyde for 10 min at RT. […] NADH/NADPH autofluorescence was detected with 740 nm excitation and 450±50 nm detectors using a Mai Tai two-photon laser. Fluorescence microscopy was performed on a Zeiss LSM 780 confocal using a 63× oil objective with a […] numerical aperture (NA) or using a Nikon TE2000-S inverted epifluorescence microscope with a 100× oil objective (1.3 NA) and a Photometrics CoolSNAP ES2 monochrome CCD camera. […]

CCCCCCCCc1ccc([C@H]2CCN[C@@H]2CO)cc1.Cl [compound 893]
DRP1 recruitment to mitochondria in response to palmitate (893 5 μM or YM201636 800 nM 3 h, then palmitate 250 μM 3 h): prevented the recruitment of the GTPase that mediates fission, DRP1, to mitochondrial membranes | DRP1 protein expression levels (893 5 μM, palmitate 250 μM, western blot): without affecting DRP1 protein expression levels
